Experimental data from publication PMC6001238, “Iterative Chemical Engineering of Vancomycin Leads to Novel Vancomycin Analogs With a High in Vitro Therapeutic Index” (Frontiers in Microbiology, 2018).
≈ marks a conversion by molar mass, not a printed value. Like-named read-outs stand apart in the source and are kept apart here.

Key:
[1] = tested on: S. aureus VRSA; test: MIC, broth microdilution, vancomycin-resistant S. aureus (VRSA); assay type: cell-based, Staphylococcus aureus
Outline: (§1)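 Following CLSI antimicrobial susceptibility standards, organisms were tested by broth microdilution. Controls comprised ultrapure water plus broth left uninoculated. For a single condition, 10 μM vancomycin (final) accompanied the analog or control agent.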

[2] = tested on: VE 149 (VanB); test: MIC, VanB-type VRE strain VE 149; assay type: cell-based, Enterococcus; settings: VE 149, VanB; read-out: MIC
Outline: as §1

[3] = tested on: 33 clinical VRE isolates; test: MIC against a set of 33 clinical VRE isolates (range, MIC50, TI); assay type: cell-based, Enterococcus faecalis
Outline: as §1

[4] = tested on: MRSA KS1; test: MIC, broth microdilution, MRSA KS1; assay type: cell-based, Staphylococcus aureus
Outline: as §1

[5] = tested on: E. faecalis VRE 53; test: MIC, broth microdilution, vancomycin-resistant E. faecalis VRE 53 (VanA); assay type: cell-based, Enterococcus faecalis
Outline: as §1

[6] = tested on: S. aureus VISA/HIP5827; test: MIC, broth microdilution, vancomycin-intermediate S. aureus VISA HIP5827; assay type: cell-based, Staphylococcus aureus
Outline: as §1

[7] = tested on: Murine leukemia (L1210) cells; test: Cytostatic activity, L1210 cell proliferation; assay type: cell-based; settings: mean ± SD of three experiments; highest concentration tested 250 µM; 2 days; read-out: Toxicity (IC50) L1210
Outline: (§2)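 Suspensions (300,000–500,000 cells/mL) combined with equal volumes of diluted compound; 37°C; L1210 2 d / CEM 3 d / HeLa 4 d; counted by Coulter counter; IC50 vs untreated wells.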

[8] = tested on: Clostridium difficile ATJ ribotype 014/20; test: MIC, plate drop assay, C. difficile ATJ ribotype 014/20; assay type: cell-based; settings: for MIC-fold improvement vs. vancomycin: C. difficile ATJ ribotype 014/20
Outline: (§3)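 Twofold dilution series of test compounds were spotted onto C. difficile lawns in 0.4% BHI agar containing added calcium and magnesium salts. After overnight anaerobic incubation at 37°C, growth inhibition was scored by spot clearing; triplicate runs, ultrapure water negative control.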

[9] = tested on: E. faecalis VRE 6; test: MIC, broth microdilution, vancomycin-resistant E. faecalis VRE 6 (VanA); assay type: cell-based, Enterococcus faecalis
Outline: as §1

[10] = tested on: Clostridium difficile AIU ribotype 027; test: MIC, plate drop assay, C. difficile AIU ribotype 027; assay type: cell-based; settings: for MIC-fold improvement vs. vancomycin: C. difficile AIU ribotype 027
Outline: as §3

[11] = tested on: VE 152 (VanB); test: MIC, VanB-type VRE strain VE 152; assay type: cell-based, Enterococcus; settings: VE 152, VanB; read-out: MIC
Outline: as §1

[12] = tested on: S. aureus VSSA (ATCC 6538); test: MIC, broth microdilution, vancomycin-sensitive S. aureus (VSSA/MSSA, ATCC 6538); assay type: cell-based, Staphylococcus aureus
Outline: as §1

[13] = tested on: 24 clinical MRSA isolates; test: MIC against a set of 24 clinical MRSA isolates (range, MIC50, TI); assay type: cell-based, Staphylococcus aureus
Outline: as §1

[14] = tested on: VE 148 (VanB); test: MIC, VanB-type VRE strain VE 148; assay type: cell-based, Enterococcus; settings: VE 148, VanB; read-out: MIC
Outline: as §1

[15] = tested on: VE 82 (VanC1); test: MIC, VanC1-type VRE strain VE 82; assay type: cell-based, Enterococcus gallinarum; settings: VE 82, VanC1; read-out: MIC
Outline: as §1

[16] = tested on: human cervix carcinoma (HeLa) cells; test: Cytostatic activity, HeLa cell proliferation; assay type: cell-based; settings: mean ± SD of three experiments; highest concentration tested 250 µM; 4 days; read-out: Toxicity (IC50) HeLa
Outline: as §2

[17] = tested on: MRSA KS6; test: MIC, broth microdilution, MRSA KS6; assay type: cell-based, Staphylococcus aureus
Outline: as §1

[18] = tested on: E. faecalis VRE 37; test: MIC, broth microdilution, vancomycin-resistant E. faecalis VRE 37 (VanA); assay type: cell-based, Enterococcus faecalis
Outline: as §1

[19] = tested on: VE 150 (VanB); test: MIC, VanB-type VRE strain VE 150; assay type: cell-based, Enterococcus; settings: VE 150, VanB; read-out: MIC
Outline: as §1

[20] = tested on: L1210, CEM and HeLa cell lines; test: Cytostatic activity, average or summary over L1210, CEM and HeLa; assay type: cell-based
Outline: as §2

[21] = tested on: E. faecalis VSE 1; test: MIC, broth microdilution, vancomycin-sensitive E. faecalis (VSE 1); assay type: cell-based, Enterococcus faecalis
Outline: as §1

[22] = tested on: MRSA KS2; test: MIC, broth microdilution, MRSA KS2; assay type: cell-based, Staphylococcus aureus
Outline: as §1

[23] = tested on: VE 157 (VanB); test: MIC, VanB-type VRE strain VE 157; assay type: cell-based, Enterococcus; settings: VE 157, VanB; read-out: MIC
Outline: as §1

[24] = tested on: MRSA; test: Minimum bactericidal concentration against MRSA; assay type: cell-based, Staphylococcus aureus
Description: Plates were incubated overnight at 37°C and colony growth was inspected.

[25] = tested on: human T-lymphocyte (CEM) cells; test: Cytostatic activity, CEM cell proliferation; assay type: cell-based; settings: mean ± SD of three experiments; highest concentration tested 250 µM; 3 days; read-out: Toxicity (IC50) CEM
Outline: as §2

[26] = tested on: E. faecalis VRE 29; test: MIC, broth microdilution, vancomycin-resistant E. faecalis VRE 29 (VanA); assay type: cell-based, Enterococcus faecalis
Outline: as §1

[27] = tested on: MRSA KS89; test: MIC, broth microdilution, MRSA KS89; assay type: cell-based, Staphylococcus aureus
Outline: as §1

In the case of `CNC(CC(C)C)C(=O)NC1C(=O)NC(CC(N)=O)C(=O)NC2C(=O)NC3C(=O)NC(C(=O)NC(C(=O)NCCCNC(=O)c4ccc5cc(NS(=O)(=O)c6ccc(C(C)C)cc6)ccc5c4)c4cc(O)cc(O)c4-c4cc3ccc4O)C(O)c3ccc(c(Cl)c3)Oc3cc2cc(c3OC2OC(CO)C(O)C(O)C2OC2CC(C)(N)C(O)C(C)O2)Oc2ccc(cc2Cl)C1O` (stereo not drawn) [Vanc-66], the MIC ([1]; Staphylococcus aureus VRSA, read-out: MIC) is reported as 0.39 µM (≈ 0.724 µg/mL), the “MIC-fold improvement vs. vancomycin” value ([1]; VRSA, ratio of MIC of vancomycin and MIC of analogue) is reported as 256 and the MIC [2] is reported as 0.78 µM (≈ 1.45 µg/mL). The “MIC Range” value ([3]; 33 clinical VRE isolates) was 1.56 to 12.5 µM, the “TI (IC50/MIC50)” value ([3]; in vitro therapeutic index, VRE) was 61 and the MIC50 ([3]; median MIC, 33 clinical VRE isolates, read-out: MIC50) was 3.13 µM (≈ 5.81 µg/mL). The “MIC-fold improvement vs. vancomycin” value ([4]; MRSA KS1, ratio of MIC of vancomycin and MIC of analogue) was 1, the MIC ([4]; Staphylococcus aureus MRSA KS1, read-out: MIC) was 0.78 µM (≈ 1.45 µg/mL) and the MIC ([5]; Enterococcus faecalis VRE 53 (vancomycin-resistant), read-out: MIC) was 25 µM (≈ 46.4 µg/mL). For the same compound, the “MIC-fold improvement vs. vancomycin” value ([5]; VRE 53, ratio of MIC of vancomycin and MIC of analogue) was 16, the MIC ([6]; Staphylococcus aureus VISA/HIP5827, read-out: MIC) was 0.78 µM (≈ 1.45 µg/mL) and the “MIC-fold improvement vs. vancomycin” value ([6]; VISA/HIP5827, ratio of MIC of vancomycin and MIC of analogue) was 8. For the same compound, the IC50 [7] was greater than 250 µM, the “MIC-fold improvement vs. vancomycin” value [8] was “up to 45” and the MIC ([8]; C. difficile ATJ ribotype 014/20, plate drop assay) was 0.78 µM (≈ 1.45 µg/mL). For the same compound, the “MIC-fold improvement vs. vancomycin” value ([8]; listed as Vanc- 66) was 45, the MIC ([9]; Enterococcus faecalis VRE 6 (vancomycin-resistant), read-out: MIC) was 1.56 µM (≈ 2.9 µg/mL) and the “MIC-fold improvement vs. vancomycin” value ([9]; VRE 6, ratio of MIC of vancomycin and MIC of analogue) was 128. The “MIC-fold improvement vs. vancomycin” value [10] was no more than 58, the MIC ([10]; C. difficile AIU ribotype 027, plate drop assay) was 0.78 µM (≈ 1.45 µg/mL) and the “MIC-fold improvement vs. vancomycin” value ([10]; listed as Vanc- 66) was 58. For the same compound, the MIC [11] was 0.78 µM (≈ 1.45 µg/mL), the MIC ([12]; Staphylococcus aureus VSSA, read-out: MIC) was 0.78 µM (≈ 1.45 µg/mL) and the “MIC-fold improvement vs. vancomycin” value ([12]; VSSA, ratio of MIC of vancomycin and MIC of analogue) was 1. The “MIC Range” value ([13]; 24 clinical MRSA isolates) was 0.20 to 3.13 µM, the “TI (IC50/MIC50)” value ([13]; in vitro therapeutic index, MRSA) was 238 and the MIC50 ([13]; median MIC, 24 clinical MRSA isolates, read-out: MIC50) was 0.78 µM (≈ 1.45 µg/mL). It also gave an MIC [14] of 1.56 µM (≈ 2.9 µg/mL), an MIC [15] of 0.78 µM (≈ 1.45 µg/mL) and an IC50 [16] of 78 ± 49 µM. The “MIC-fold improvement vs. vancomycin” value ([17]; MRSA KS6, ratio of MIC of vancomycin and MIC of analogue) was 4, the MIC ([17]; Staphylococcus aureus MRSA KS6, read-out: MIC) was 0.20 µM (≈ 0.371 µg/mL) and the MIC ([18]; Enterococcus faecalis VRE 37 (vancomycin-resistant), read-out: MIC) was 3.13 µM (≈ 5.81 µg/mL). The “MIC-fold improvement vs. vancomycin” value ([18]; VRE 37, ratio of MIC of vancomycin and MIC of analogue) was 128, the MIC [19] was 0.78 µM (≈ 1.45 µg/mL) and the IC50 ([20]; average IC50 used for TI in Table S5, >250 entered as 250, read-out: IC50) was 190 µM. For the same compound, the IC50 ([20]; average of L1210, CEM and HeLa, read-out: Toxicity (IC50) Average) was 190 µM, the MIC ([21]; Enterococcus faecalis VSE 1 (vancomycin-sensitive), read-out: MIC) was 0.39 µM (≈ 0.724 µg/mL) and the “MIC-fold improvement vs. vancomycin” value ([21]; VSE 1, ratio of MIC of vancomycin and MIC of analogue) was 4. The “MIC-fold improvement vs. vancomycin” value ([22]; MRSA KS2, ratio of MIC of vancomycin and MIC of analogue) was 2, the MIC ([22]; Staphylococcus aureus MRSA KS2, read-out: MIC) was 0.39 µM (≈ 0.724 µg/mL) and the MIC [23] was 0.78 µM (≈ 1.45 µg/mL). The “MBC relative to MIC” value [24] was “MBC equaling their MIC values”, the IC50 [25] was 243 ± 10 µM and the MIC ([26]; Enterococcus faecalis VRE 29 (vancomycin-resistant), read-out: MIC) was 3.13 µM (≈ 5.81 µg/mL). For the same compound, the “MIC-fold improvement vs. vancomycin” value ([26]; VRE 29, ratio of MIC of vancomycin and MIC of analogue) was 128, the “MIC-fold improvement vs. vancomycin” value ([27]; MRSA KS8, ratio of MIC of vancomycin and MIC of analogue) was 2 and the MIC ([27]; Staphylococcus aureus MRSA KS8, read-out: MIC) was 0.39 µM (≈ 0.724 µg/mL).
